Source: patent US20260103709A1, “C-MYC-TARGETING CHARGE-ALTERING RELEASABLE TRANSPORTERS AS ANTI-TUMOR AGENTS FOR BREAST CANCER THERAPY” (The Board of Trustees of the Leland Stanford Junior …, priority 2022, published 2026)

Legend:
[1] = test system: murine cell lines M1011, M158, and 4T1; test: JQ1 cell viability IC50, murine TNBC cell lines (CellTiter Glo); type: cell-based, mouse; settings: 24 hour treatment, range over murine TNBC cell lines
Description: (§1) The specificity and dependence of CART siMYC's inhibitory effect on Myc or MYC levels in murine or human TNBC cells, respectively, was evaluated next. […] A number of different murine and human TNBC cell lines expressing high (murine cells: M158, M1011, and 4T1; and human cells: MDA-MB-231 and MDA-MB-436) or low MYC levels (human cell: BT20) were evaluated. […] The viability of M1011 and 4T1 cells was reduced by 25% upon treatment with CART siMYC but not with CARTs alone or with CART siLUC (FIG. 4B, FIG. 4C). In human TNBC cells, treatment with a human MYC-targeting siRNA (SEQ ID NO: 1) reduced viability by 35% or 22% in MDA-MB-231 or MDA-MB-436 cells, respectively (FIG. 4D, FIG. 4E). […] We conclude that CART siMYC is effective against TNBC cells expressing high, but not low, MYC levels and that the breadth of its therapeutic effects is dependent on cellular MYC levels.
(§2) […] 96-well plates were rocked for 5 minutes at room temperature, 100 μl from each well were transferred to a white opaque 96-well plate and luminescence was read using a SpectraMax Paradigm Multi-Mode Detection Platform plate reader (Molecular Devices).

BT20 cells = test: Cell viability after CART with human MYC siRNA, BT20 (low MYC); type: cell-based; settings: JQ1 at the concentrations used for pre-treatment
Description: FIG. 4A to FIG. 4F: CART siMYC decreases cell viability in cells expressing high levels of Myc. […] Error bars represent SEM. Significance was taken at P<0.05 (*), P<0.01 (**), and P<0.005 (***). ns=not significant.
The specificity and dependence of CART siMYC's inhibitory effect on Myc or MYC levels in murine or human TNBC cells, respectively, was evaluated next. […] A number of different murine and human TNBC cell lines expressing high (murine cells: M158, M1011, and 4T1; and human cells: MDA-MB-231 and MDA-MB-436) or low MYC levels (human cell: BT20) were evaluated. […] The viability of M1011 and 4T1 cells was reduced by 25% upon treatment with CART siMYC but not with CARTs alone or with CART siLUC (FIG. 4B, FIG. 4C). In human TNBC cells, treatment with a human MYC-targeting siRNA (SEQ ID NO: 1) reduced viability by 35% or 22% in MDA-MB-231 or MDA-MB-436 cells, respectively (FIG. 4D, FIG. 4E). […]
Plates were incubated for 48 hours and upon treatment completion, a CellTiTer Glow assay was performed according to manufacturer's instructions (Promega). 96-well plates were rocked for 5 minutes at room temperature, 100 μl from each well were transferred to a white opaque 96-well plate and luminescence was read using a SpectraMax Paradigm Multi-Mode Detection Platform plate reader (Molecular Devices).

[2] = test system: human cell lines MDA-MB-436, MDA-MB-231, and BT20; test: JQ1 cell viability IC50, human TNBC cell lines (CellTiter Glo); type: cell-based; settings: 24 hour treatment, range over human TNBC cell lines
Description: as §1, §2

## Cc1sc2c(c1C)C(c1ccc(Cl)cc1)=N[C@@H](CC(=O)OC(C)(C)C)c1nnc(C)n1-2 [JQ1]
[1]
  IC50: 0.3 to 0.72 µM
BT20 cells
  effect of JQ1 on BT20 cells: not significantly affected
[2]
  IC50: 7 to 32 µM
